From patent publication US8039668B2, “Naphthalene-based inhibitors of anti-apoptotic proteins” (Burnham Institute for Medical Research, priority 2008, dated 2011)
Like-named read-outs stand apart in the source and are kept apart here.

Assays:
BCL-XL = BCL-XL (Homo sapiens, UniProt Q07817); test: 1D 1H-NMR binding assay; set-up: key to 1D-^1H NMR: +++, Very Active; ++, Active; +, Mild; −, Weak; settings: for 1D-^1H NMR: BCL-XL 25 μM, compound 200 μM; for 1D ^1H-NMR Binding Assay (BCL-XL): Table 9
Method: By observing the aliphatic region of the spectra, binding could be readily detected due to chemical shift changes in active site methyl groups of Ile, Leu, Thr, Val or Ala (region between −0.8 and 0.3 ppm). All experiments were performed with a 600 MHz spectrometer Bruker Avance 600 equipped with four rf channels and z-axis pulse-field gradients.

H1299 cell line = test: Cell viability, ATP-LITE assay; format: cell-based, human; settings: Homo sapiens
Method: (§1) The activity of the compounds against human cancer cell lines (PC3ML, H460, H1299, RS11846) were assessed by using the ATP-LITE assay (PerkinElmer). All cells were seeded in either F12 or RPMI1640 medium with 5 mM L-glutamine supplemented with 5% fetal bovine serum (Mediatech Inc.), penicillin and streptomycin (Omega). For maintenance, cells were cultured in 5% FBS. Cells plated into 96 well plates at varying initial densities depending on doubling time. H460 and H1299 plated at 2000 cells/well, A549 and PC3 at 3000 cells/well, and RS118456S at 10,000 cells/well. Compounds were diluted to final concentrations with 0.1% DMSO. Prior to dispensing compounds onto cells, fresh 5% media was placed into wells. Administration of compounds occurred 24 hours after seeding into the fresh media. Cell viability was evaluated using ATP-LITE reagent (PerkinElmer) after 72 hours of treatment. Data were normalized to the DMSO control-treated cells using Prism version 5.01 (Graphpad Software).

PC3ML cells = test: Cell viability, ATP-LITE assay; format: cell-based, human; settings: Homo sapiens, PC3-ML, ATP-LITE assay
Method: as §1

[1] = system: H460 human lung cell line; test: Cell viability, ATP-LITE assay; format: cell-based; settings: Homo sapiens
Method: as §1

[2] = system: human lymphoma RS11846 cell line; test: Apoptosis, Annexin V-FITC and propidium iodide assay; format: cell-based; settings: for EC50: Homo sapiens
Method: The apoptotic activity of the compounds against RS11846 cells was assessed by staining with Annexin V- and propidium iodide (PI). Lymphoma cell line, RS11846, was cultured in RPMI 1640 medium (Mediatech Inc., Herndon, Va. 20171) containing 10% fetal bovine serum (Mediatech Inc., Herndon, Va. 20171) and Penicillin/Streptomycin (Mediatech Inc., Herndon, Va. 20171). […] The percentage of viable cells was determined by FITC-Annexin V- and propidium iodide (PI)-labeling, using an Apoptosis Detection kit (BioVision Inc.), and analyzing stained cells by flow cytometry (FACSort; Bectin-Dickinson, Inc.; Mountain View, Calif.). Cells that were annexin-V-negative and PI-negative were considered viable.

B6Bcl-2 transgenic mice = system: B6Bcl-2 transgenic mice
Method: Transgenic mice expressing BCL-2 have been described as the B6 line. The BCL-2 transgene res a minigene version of a t(14;18) translocation in which the human BCL-2 gene is fused with the immunoglobulin heavy-chain (IgH) locus and associated IgH enhancer. The transgene was propagated on the Balb/c background.
After 24 hours, B6BCL2 mice were sacrificed by intraperitoneal injection of lethal dose of Avertin. Spleen was removed and weighed. […] Spleen tissue was fixed in z-FIX for 3 days and rinsed in PBS, and saved for histological analysis of spleen (H&E staining and TUNEL assay).

[3] = NCI-H1299, heading: EC50 H1299, Table 3, ATP-LITE assay, read-out: EC50 H1299
[4] = Table 3, heading: EC50 PC3ML, read-out: EC50 PC3ML
[5] = NCI-H460, heading: EC50 H460, Table 3, ATP-LITE assay, read-out: EC50 H460
[6] = Table 3, Annexin V-FITC and propidium iodide assay, heading: EC50 RS11846, read-out: EC50 RS11846
[7] = NCI-H1299, ATP-LITE assay, read-out: EC50 H1299
[8] = NCI-H460, ATP-LITE assay, read-out: EC50 H460
[9] = Annexin V-FITC and propidium iodide assay, read-out: EC50 RS11846
[10] = NCI-H1299, read-out: EC50 H1299
[11] = read-out: EC50 RS11846, Table 3, Annexin V-FITC and propidium iodide assay

Sequence of BCL-XL (Q07817 whole entry): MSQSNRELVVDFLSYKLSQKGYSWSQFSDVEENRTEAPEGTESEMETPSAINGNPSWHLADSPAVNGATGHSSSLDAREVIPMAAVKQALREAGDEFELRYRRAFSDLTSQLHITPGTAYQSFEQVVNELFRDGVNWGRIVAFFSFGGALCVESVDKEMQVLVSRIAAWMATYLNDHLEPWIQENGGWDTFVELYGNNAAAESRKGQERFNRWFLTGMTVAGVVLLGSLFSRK

## Cc1cc2c(C(=O)Nc3ccc(Oc4ccccc4)cc3)c(O)c(O)cc2c(O)c1-c1c(C)cc2c(C(=O)Nc3ccc(Oc4ccccc4)cc3)c(O)c(O)cc2c1O [Compound 8c, 1,1′,6,6′,7,7′-hexahydroxy-3,3′-dimethyl-N^5,N^5′-bis(4-phenoxyphenyl)-2,2′-binaphthyl-5,5′-dicarboxamide]
BCL-XL; Table 3
  1D-^1H NMR: +
H1299 cell line; [3]
  EC50: 17 µM
PC3ML cells; [4]
  EC50: 8.5 µM
[1]; [5]
  EC50: 10.1 µM
[2]; [6]
  EC50: 10.8 µM

## Cc1cccc(CNC(=O)c2c(O)c(O)cc3c(O)c(-c4c(C)cc5c(C(=O)NCc6cccc(C)c6)c(O)c(O)cc5c4O)c(C)cc23)c1 [Compound 8h, 1,1′,6,6′,7,7′-hexahydroxy-3,3′-dimethyl-N^5,N^5′-bis(3-methylbenzyl)-2,2′-binaphthyl-5,5′-dicarboxamide]
BCL-XL; Table 3
  1D-^1H NMR: +++
H1299 cell line; [3]
  EC50: 3.1 µM
PC3ML cells; Table 3, read-out: EC50 PC3ML
  EC50: 10.2 µM
[1]; [5]
  EC50: 2.9 µM
[2]; [6]
  EC50: 4.8 µM

## Cc1cc2c(C(=O)NCC3CC3)c(O)c(O)cc2c(O)c1-c1c(C)cc2c(C(=O)NCC3CC3)c(O)c(O)cc2c1O [Compound 8l, N^5,N^5′-bis(cyclopropylmethyl)-1,1′,6,6′,7,7′-hexahydroxy-3,3′-dimethyl-2,2′-binaphthyl-5,5′-dicarboxamide]
BCL-XL; Table 3
  1D-^1H NMR: +
[2]; [6]
  EC50: > 10 µM

## CCc1cccc(NC(=O)c2c(O)c(O)cc3c(O)c(-c4c(C)cc5c(C(=O)Nc6cccc(CC)c6)c(O)c(O)cc5c4O)c(C)cc23)c1 [Compound 8d, N^5,N^5′-bis(3-ethylphenyl)-1,1′,6,6′,7,7′-hexahydroxy-3,3′-dimethyl-2,2′-binaphthyl-5,5′-dicarboxamide]
BCL-XL; Table 3
  1D-^1H NMR: +
H1299 cell line; [3]
  EC50: 5 µM
PC3ML cells; [4]
  EC50: 8.3 µM
[1]; [5]
  EC50: 4.1 µM
[2]; [6]
  EC50: 4.7 µM

## Cc1cc2c(C(=O)NC3CCCC3)c(O)c(O)cc2c(O)c1-c1c(C)cc2c(C(=O)NC3CCCC3)c(O)c(O)cc2c1O [Compound 8b, N^5,N^5′-dicyclopentyl-1,1′,6,6′,7,7′-hexahydroxy-3,3′-dimethyl-2,2′-binaphthyl-5,5′-dicarboxamide]
BCL-XL; Table 3
  1D-^1H NMR: +
H1299 cell line; [3]
  EC50: 8 µM
PC3ML cells; [4]
  EC50: 12.2 µM
[1]; [5]
  EC50: 8.5 µM
[2]; [6]
  EC50: 13.7 µM

## Cc1cc2c(C(=O)Nc3cccc(C(F)(F)F)c3)c(O)c(O)cc2c(O)c1-c1c(C)cc2c(C(=O)Nc3cccc(C(F)(F)F)c3)c(O)c(O)cc2c1O [Compound 8e, 1,1′,6,6′,7,7′-hexahydroxy-3,3′-dimethyl-N^5,N^5′-bis(3-(trifluoromethyl)phenyl)-2,2′-binaphthyl-5,5′-dicarboxamide]
BCL-XL; Table 3
  1D-^1H NMR: +
H1299 cell line; [3]
  EC50: 28.7 µM
PC3ML cells; [4]
  EC50: 12.2 µM
[1]; [5]
  EC50: 16.7 µM
[2]; [6]
  EC50: 12.6 µM

## Cc1cccc(CCNC(=O)c2c(O)c(O)cc3c(O)c(-c4c(C)cc5c(C(=O)NCCc6cccc(C)c6)c(O)c(O)cc5c4O)c(C)cc23)c1 [Compound 8o, 1,1′,6,6′, 7,7′-hexahydroxy-3,3′-dimethyl-N^5,N^5′-bis(3-methylphenethyl)-2,2′-binaphthyl-5,5′-dicarboxamide]
BCL-XL; Table 3
  1D-^1H NMR: +
[1]; NCI-H460, Table 3, ATP-LITE assay, read-out: EC50 H460
  EC50: 0.7 µM
[2]; [6]
  EC50: 5.6 µM

## CCC(C)C(=O)c1c(O)c(O)cc2c(O)c(-c3c(C)cc4c(C(=O)C(C)CC)c(O)c(O)cc4c3O)c(C)cc12 (centres unmarked) [Compound XIX, 1,1′-(1,1′,6,6′,7,7′-hexahydroxy-3,3′-dimethyl-2,2′-binaphthyl-5,5′-diyl)bis(2-methylbutan-1-one)]
BCL-XL
  1D ^1H-NMR Binding Assay (BCL-XL): +
[2]; Table 9, read-out: RS11846 EC50 (Annexin V- and propidium iodide assay)
  EC50: 17.1 µM

## Cc1cc2cc(O)c(O)cc2c(O)c1-c1c(C)cc2cc(O)c(O)cc2c1O [Compound 13, 3,3′-dimethyl-2,2′-binaphthyl-1,1′,6,6′,7,7′-hexaol]
BCL-XL; Table 4
  1D-^1H NMR: −
H1299 cell line; [7]
  EC50: 13.4 µM
PC3ML cells; read-out: EC50 PC3ML
  EC50: > 10 µM
[1]; [8]
  EC50: > 10 µM
B6Bcl-2 transgenic mice; Bcl-2 transgenic mouse, single ip injection 72 μmol/kg
  Tox: 0
B6Bcl-2 transgenic mice; single ip 72 μmol/kg
  activity in transgenic mice model: no activity
[2]; [9]
  EC50: 24.5 µM
[2]; in words
  induction of apoptosis of the RS11846 cell line: weak or no apoptosis

## Cc1cc2c(C(=O)NCc3cccc(Cl)c3)c(O)c(O)cc2c(O)c1-c1c(C)cc2c(C(=O)NCc3cccc(Cl)c3)c(O)c(O)cc2c1O [Compound 8i, N^5,N^5′-bis(3-chlorobenzyl)-1,1′,6,6′,7,7′-hexahydroxy-3,3′-dimethyl-2,2′-binaphthyl-5,5′-dicarboxamide]
BCL-XL; Table 3
  1D-^1H NMR: +++
H1299 cell line; [10]
  EC50: 5.2 µM
PC3ML cells; read-out: EC50 PC3ML, Table 3
  EC50: 8.3 µM
[1]; NCI-H460, read-out: EC50 H460
  EC50: 3.3 µM
[2]; [11]
  EC50: 7.3 µM

## Cc1cc2c(Cc3ccccc3)c(O)c(O)cc2c(O)c1-c1c(C)cc2c(Cc3ccccc3)c(O)c(O)cc2c1O [Compound 12d, 5,5′-dibenzyl-3,3′-dimethyl-2,2′-binaphthyl-1,1′,6,6′,7,7′-hexaol]
BCL-XL; Table 4
  1D-^1H NMR: +
H1299 cell line; [7]
  EC50: 1.28 µM
PC3ML cells; read-out: EC50 PC3ML
  EC50: 8.3 µM
[1]; [8]
  EC50: 1.2 µM
[2]; [9]
  EC50: 3.2 µM

## Cc1cc2c(C(=O)Nc3ccccc3)c(O)c(O)cc2c(O)c1-c1c(C)cc2c(C(=O)Nc3ccccc3)c(O)c(O)cc2c1O [Compound 8a, 1,1′,6,6′,7,7′-hexahydroxy-3,3′-dimethyl-N^5,N^5′-diphenyl-2,2′-binaphthyl-5,5′-dicarboxamide]
BCL-XL; Table 3
  1D-^1H NMR: +
H1299 cell line; [3]
  EC50: 8 µM
[1]; NCI-H460, Table 3, ATP-LITE assay, heading: EC50 H460, read-out: EC50 H460
  EC50: 3.5 µM

## CCCCC(=O)c1c(O)c(O)cc2c(O)c(-c3c(C)cc4c(C(=O)CCCC)c(O)c(O)cc4c3O)c(C)cc12 [Compound XX, 1,1′-(1,1′,6,6′,7,7′-hexahydroxy-3,3′-dimethyl-2,2′-binaphthyl-5,5′-diyl)dipentan-1-one]
BCL-XL
  1D ^1H-NMR Binding Assay (BCL-XL): +
[2]; read-out: RS11846 EC50 (Annexin V- and propidium iodide assay), Table 9
  EC50: 11.7 µM

## Cc1cc2c(C(=O)NCc3ccccc3)c(O)c(O)cc2c(O)c1-c1c(C)cc2c(C(=O)NCc3ccccc3)c(O)c(O)cc2c1O [Compound 8g, N^5,N^5′-dibenzyl-1,1′,6,6′,7,7′-hexahydroxy-3,3′-dimethyl-2,2′-binaphthyl-5,5′-dicarboxamide]
BCL-XL; Table 3
  1D-^1H NMR: +
H1299 cell line; [10]
  EC50: 3.6 µM
PC3ML cells; read-out: EC50 PC3ML, Table 3
  EC50: 13.7 µM
[1]; NCI-H460, read-out: EC50 H460
  EC50: 4.6 µM
[2]; [11]
  EC50: 9.3 µM

## Cc1cc2c(CC(C)C)c(O)c(O)cc2c(O)c1-c1c(C)cc2c(CC(C)C)c(O)c(O)cc2c1O [Compound 12a, 5,5′-diisobutyl-3,3′-dimethyl-2,2′-binaphthyl-1,1′,6,6′,7,7′-hexaol]
BCL-XL; Table 4
  1D-^1H NMR: +

## Cc1cc2c(CCC(C)C)c(O)c(O)cc2c(O)c1-c1c(C)cc2c(CCC(C)C)c(O)c(O)cc2c1O [Compound 12b, 5,5′-diisopentyl-3,3′-dimethyl-2,2′-binaphthyl-1,1′,6,6′,7,7′-hexaol]
BCL-XL; Table 4
  1D-^1H NMR: +

## CCC(NC(=O)c1c(O)c(O)cc2c(O)c(-c3c(C)cc4c(C(=O)NC(CC)c5ccccc5)c(O)c(O)cc4c3O)c(C)cc12)c1ccccc1 (centres unmarked) [Compound 8f, 1,1′,6,6′,7,7′-hexahydroxy-3,3′-dimethyl-N^5,N^5′-bis(1-phenylpropyl)-2,2′-binaphthyl-5,5′-dicarboxamide]
BCL-XL; Table 3
  1D-^1H NMR: +++
[1]; [5]
  EC50: 1.5 µM
[2]; [6]
  EC50: 4.2 µM
